Holding throughout (type): functional
Assay [1] deals with [Candida] auris. Put plainly: Antifungal activity against Candida auris 919 assessed as inhibition in growth incubated for 48 hrs by broth microdilution method. The settings on record: Candidozyma auris. For orientation: Broth dilution looks for growth in wells or tubes with falling amounts of substance.
A further assay deals with Candida tropicalis. Put plainly: Antifungal activity against Candida tropicalis 8915 assessed as inhibition in growth incubated for 48 hrs by broth microdilution method.
In another assay the test system is Nakaseomyces glabratus. Put plainly: Antifungal activity against Candida glabrata 537 assessed as inhibition in growth incubated for 48 hrs by broth microdilution method.
A further assay concerns Candida parapsilosis. Put plainly: Antifungal activity against Candida parapsilosis 22019 assessed as inhibition in growth incubated for 48 hrs by broth microdilution method. The settings on record: Lodderomyces parapsilosis.
In assay [2] the test system is Cryptococcus neoformans. Put plainly: Antifungal activity against Cryptococcus neoformans H99 assessed as inhibition in growth incubated for 48 hrs by broth microdilution method.
The subject of assay [3] is Candida albicans. Kind of assay: Antifungal activity against Candida albicans 10231 assessed as inhibition in growth incubated for 48 hrs by broth microdilution method.
Assay [4] concerns Candida albicans. Kind of assay: Antifungal activity against Candida albicans SC5314 assessed as inhibition in growth incubated for 48 hrs by broth microdilution method.
The subject of assay [5] is [Candida] auris. Kind of assay: Antifungal activity against Candida auris 918 assessed as inhibition in growth incubated for 48 hrs by broth microdilution method. The settings on record: Candidozyma auris.
In assay [6] the test system is Cryptococcus neoformans. Kind of assay: Antifungal activity against Cryptococcus neoformans 32609 assessed as inhibition in growth incubated for 48 hrs by broth microdilution method.
For a further assay, the system named is Pichia kudriavzevii. Put plainly: Antifungal activity against candida krusei 4996 assessed as inhibition in growth incubated for 48 hrs by broth microdilution method.

This passage reports MIC80 results from ChEMBL document CHEMBL5390241, “Natural Enfumafungin Analogues from Hormonema carpetanum and Their Antifungal Activities” (2023).

≈ marks a conversion by molar mass, not a printed value.

As usually defined, the MIC80 is an inhibitory concentration at the 80% level, which refers to growth in some studies and to a panel of isolates in others. `CC(=O)O[C@@H]1C[C@]23C4=CC[C@@]5(C)[C@H](C(=O)O)[C@@](C)([C@H](C)C(C)C)CC[C@]5(C)[C@H]4CC[C@H]2[C@@](C)(COC3O)[C@H]1O[C@@H]1O[C@H](CO)[C@@H](O)[C@H](O)[C@H]1O` (stereo not given in full) [ENFUMAFUNGIN]: the MIC80 was found to be 64 µg/mL (≈ 90.3 µM) in assay [Candida] auris [1]; 4 µg/mL (≈ 5.64 µM) in the assay on Candida tropicalis; 8 µg/mL (≈ 11.3 µM) in the assay on Nakaseomyces glabratus; 8 µg/mL (≈ 11.3 µM) in the assay on Candida parapsilosis; 4 µg/mL (≈ 5.64 µM) in the assay with Cryptococcus neoformans [2]; 4 µg/mL (≈ 5.64 µM) in the assay on Candida albicans [3]. The MIC80 in the assay on Candida albicans [4] amounted to 4 µg/mL (≈ 5.64 µM); in [Candida] auris [5], 64 µg/mL (≈ 90.3 µM); with Cryptococcus neoformans [6], 8 µg/mL (≈ 11.3 µM); with Pichia kudriavzevii, 8 µg/mL (≈ 11.3 µM).

Take `CC(=O)O[C@@H]1C[C@]23C4=CC[C@@]5(C)[C@@H]6C(=O)C[C@H](C(C)C)[C@@]6(C)CC[C@]5(C)[C@H]4CC[C@H]2[C@@](C)(COC3O)[C@H]1O[C@@H]1O[C@H](CO)[C@@H](O)[C@H](O)[C@H]1O` (stereo not given in full): the MIC80 in assay [Candida] auris [1] was more than 64 µg/mL; in the assay with Candida tropicalis, 64 µg/mL (≈ 92.6 µM); in the assay with Nakaseomyces glabratus, 16 µg/mL (≈ 23.2 µM); in the assay with Candida parapsilosis it was more than 64 µg/mL; in the assay with Cryptococcus neoformans [2] it was 32 µg/mL (≈ 46.3 µM); in the assay on Candida albicans [3], 32 µg/mL (≈ 46.3 µM). Further, the MIC80 is 64 µg/mL (≈ 92.6 µM) with Candida albicans [4], more than 64 µg/mL in assay [Candida] auris [5], 64 µg/mL (≈ 92.6 µM) in the assay with Cryptococcus neoformans [6] and 64 µg/mL (≈ 92.6 µM) in the assay with Pichia kudriavzevii.

For the compound `OC(Cn1cncn1)(Cn1cncn1)c1ccc(F)cc1F` [FLUCONAZOLE], the MIC80 is more than 64 µg/mL in assay [Candida] auris [1]; more than 64 µg/mL in the assay with Candida tropicalis; 1 µg/mL (≈ 3.27 µM) in the assay on Nakaseomyces glabratus; 4 µg/mL (≈ 13.1 µM) with Candida parapsilosis; more than 64 µg/mL in the assay with Cryptococcus neoformans [2]; more than 64 µg/mL in the assay on Candida albicans [3]. Further, the MIC80 was 1 µg/mL (≈ 3.27 µM) in the assay on Candida albicans [4], more than 64 µg/mL in [Candida] auris [5], 1 µg/mL (≈ 3.27 µM) in the assay with Cryptococcus neoformans [6] and more than 64 µg/mL in the assay on Pichia kudriavzevii.

Take `CC(C)[C@@H](C)[C@@]1(C)CC[C@]2(C)[C@H]3CC[C@H]4[C@@]5(C)COC(O)[C@@]4(C[C@@H](O)[C@@H]5O[C@@H]4O[C@H](CO)[C@@H](O)[C@H](O)[C@H]4O)C3=CC[C@@]2(C)[C@@H]1C(=O)O` (stereo not given in full): the MIC80 in [Candida] auris [1] was more than 64 µg/mL; with Candida tropicalis, more than 64 µg/mL; in the assay on Nakaseomyces glabratus it was 32 µg/mL (≈ 48 µM); in the assay with Candida parapsilosis, more than 64 µg/mL; in the assay with Cryptococcus neoformans [2], more than 64 µg/mL; in the assay on Candida albicans [3], more than 64 µg/mL. Also, the MIC80 in the assay with Candida albicans [4] is more than 64 µg/mL; in assay [Candida] auris [5], more than 64 µg/mL; in the assay on Cryptococcus neoformans [6], more than 64 µg/mL; in the assay with Pichia kudriavzevii, 64 µg/mL (≈ 96 µM).
